Values joined by “and” are separate entries in the source; they are usually repeats but may differ in a detail not shown here. Equal values may be shown once. Marks after values point to notes of the source that are not given here.
What was measured:
[1] = target: T1, TGR (Schistosoma mansoni, UniProt Q962Y6); experiment: Reversibility by jump dilution; type: biochemical; settings: for % Activity (ID list), D0 / % Inhibition (ID list), D0: D0: diluted 1:100, activity determined immediately; for % Activity (ID list), D0 / % Inhibition (ID list), D0 / % Activity (ID list), D60 / % Inhibition (ID list), D60 / % Activity (ID list) / % Inhibition (ID list): list for plotting; for % Activity (ID list), D60 / % Inhibition (ID list), D60: D60: diluted 1:100, activity determined after 60 min; for % Activity, 0 min / % Activity, 60 min / % Activity, -15: relative to DMSO; for Inhibitor (rate), -15 / % Activity, -15: [-15]: 15 min preincubation inhibitor + TGR + NADPH, then activity determined, replicates; for % Activity (ID list) / % Inhibition (ID list): before dilution (-15)
T1 construct: made in house
T1 sequence (Q962Y6 1-598): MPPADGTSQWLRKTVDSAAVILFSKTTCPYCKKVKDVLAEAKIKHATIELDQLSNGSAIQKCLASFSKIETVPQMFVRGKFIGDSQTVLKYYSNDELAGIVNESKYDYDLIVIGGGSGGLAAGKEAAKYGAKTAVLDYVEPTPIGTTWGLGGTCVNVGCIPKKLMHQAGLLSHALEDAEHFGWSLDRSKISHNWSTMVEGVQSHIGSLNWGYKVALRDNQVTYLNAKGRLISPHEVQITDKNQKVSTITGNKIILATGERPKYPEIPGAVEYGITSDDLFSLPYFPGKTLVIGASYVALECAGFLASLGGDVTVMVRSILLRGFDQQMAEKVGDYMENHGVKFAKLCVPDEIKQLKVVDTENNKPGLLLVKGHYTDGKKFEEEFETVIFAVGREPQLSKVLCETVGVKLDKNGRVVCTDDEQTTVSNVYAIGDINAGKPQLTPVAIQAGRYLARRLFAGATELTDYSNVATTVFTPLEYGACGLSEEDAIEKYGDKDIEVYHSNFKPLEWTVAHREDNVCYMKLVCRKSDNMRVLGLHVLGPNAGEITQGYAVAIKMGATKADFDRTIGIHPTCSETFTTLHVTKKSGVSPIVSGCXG
Protocol: A reaction of 370 nM TGR, 100 µM NADPH, and 250 µM inhibitor was incubated for 15 min at room temperature. A 100x dilution of the reaction was made and the activity was determined immediately and after 60 min.

[2] = tested on: S. mansoni juvenile worms (21 days); experiment: Schistosomicidal activity ex vivo, juvenile worms (21 days); type: cell-based; settings: for LD50 ex vivo S. mansoni 21 days: juvenile worms, 48 h exposure
Protocol: Three-week old, female Swiss-Webster mice obtained from the Charles River were housed in the Comparative Research Center of Rush University Medical Center. Mice were infected by percutaneous tail exposure to about 200 S. mansoni or 50 S. japonicum cercaria for adult worms and about 1000 cercaria for juvenile S. mansoni worms through natural transdermal penetration of the cercariae for 1 h[81].
DMSO formulated compounds were diluted with phenol red free M199 medium or RPMI medium for NTS or juvenile and adult worms, respectively, at <1% DMSO final concentrations. NTS, juvenile and adult worms from overnight cultures were tested against compounds in triplicate. Controls were treated with DMSO alone or 5 µM AF as a positive control in appropriate medium. […] Schistosome viabilities in the presence of the compounds were assessed using this formula: % Viability = Averages of Test / Averages of DMSO Control x 100.

[3] = target: T1, TGR; experiment: Time dependence of inhibition; type: biochemical; settings: panel c, replicates
Protocol: TGR was incubated at room temperature (up to 6 h) and at 4 °C for 6 to 24 h with 50 µM inhibitor and 100 µM NADPH for the indicated times. Then DTNB (3 mM) and NADPH (100 µM) were added, and the reaction was monitored at A412 for 5 min. The assay was done in triplicate.

[4] = target: T1, TGR; experiment: Thermal shift assay (TSA); type: binding; set-up: key to Avg. Tm / Tm, replicate 1-3: Tm in °C, from a 25–95 °C melt curve; settings: for increase in the Tm of TGR in the presence of NADPH: 500 µM NADPH; for Avg. Tm / Tm, replicate 1-3: TGR + 100 µM compound; for Avg. Tm, + 500 µM NADPH / Tm, replicate 1-3, + 500 µM NADPH: TGR + 100 µM compound + 500 µM NADPH; for Tm, replicate 1-3, + 500 µM NADPH / Tm, replicate 1-3: single replicates; for effect on Tm of oxidized TGR: without NADPH
Protocol: Samples were prepared by using a final concentration of 0.25 mg/ml TGR diluted in TGR reaction buffer to the desired volume. To evaluate reduced TGR, 500 µM NADPH was added. […] After the preincubation period, 20 µL samples were pipetted into a BioRad un-skirted PCR 96 well plate and sealed with MicroAmp^TM Optical Adhesive film. The plate was then centrifuged for 5 min at 1000 × g. TSA was carried out using a BioRad CFX Connect qPCR instrument with a melt curve setting of 25 − 95 °C, in increments of 0.5 °C/10 seconds. The SYBR green channel was used to detect fluorescence as the wavelength of flavin fluorescence overlaps with that of SYBR green. BioRad CFX Maestro 5.2 was used to analyze TSA data.

[5] = target: BmTrxR (Brugia malayi, UniProt A0A1I9G0T9); experiment: B. malayi TrxR enzyme inhibition; type: biochemical
Sequence of BmTrxR (A0A1I9G0T9 entry or part of it, added parts left off): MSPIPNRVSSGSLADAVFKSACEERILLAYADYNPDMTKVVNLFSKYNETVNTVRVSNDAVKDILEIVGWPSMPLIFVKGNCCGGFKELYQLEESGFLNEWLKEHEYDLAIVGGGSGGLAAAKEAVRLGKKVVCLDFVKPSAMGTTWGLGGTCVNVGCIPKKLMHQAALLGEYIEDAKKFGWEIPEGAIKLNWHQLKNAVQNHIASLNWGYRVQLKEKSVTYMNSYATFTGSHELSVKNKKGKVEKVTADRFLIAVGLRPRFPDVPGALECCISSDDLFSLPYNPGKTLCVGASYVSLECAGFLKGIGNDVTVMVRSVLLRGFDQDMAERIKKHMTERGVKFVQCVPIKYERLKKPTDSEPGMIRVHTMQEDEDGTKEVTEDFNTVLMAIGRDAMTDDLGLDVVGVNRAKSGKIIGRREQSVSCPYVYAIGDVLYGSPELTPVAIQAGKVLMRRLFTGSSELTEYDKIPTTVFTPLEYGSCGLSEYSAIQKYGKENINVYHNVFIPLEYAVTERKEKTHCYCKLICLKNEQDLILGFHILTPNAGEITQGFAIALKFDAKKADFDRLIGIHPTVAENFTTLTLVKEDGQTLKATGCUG
Protocol: Recombinant TGR, human TrxR1, B. malayi (Bm)TrxR and human GR proteins were expressed and purified as described[20],[69],[79]. The codon optimized sequence for P. falciparum (PfTrxR, https://www.ncbi.nlm.nih.gov/protein/CAA60574.1/) with an N-terminal 6-His tag was synthesized and inserted into pET15b (GenScript) and expressed in BL21 (DE3) cells and purified as described for human GR[20]. […] The reaction was started with addition of an equal volume of DTNB (6 mM) and NADPH (100 µM) and the increase in A412 during the first 3 min was recorded. […] Activity was initiated with the addition of 1 mM GSSG and 100 μM NADPH and initial rates of NADPH oxidation were monitored at 340 nm. The reactions were done in triplicate. The IC50 was calculated in GraphPad Prism.

[6] = [0, D0]: 15 min preincubation inhibitor + TGR + NADPH, diluted 1:100, then activity determined immediately
[7] = [60, D60]: 15 min preincubation inhibitor + TGR + NADPH, diluted 1:100, then activity determined after 60 min

SMILES: CC(=O)OC[C@H]1O[C@@H]([S-])[C@H](OC(C)=O)[C@@H](OC(C)=O)[C@@H]1OC(C)=O.CCP(CC)CC.[Au+] [AF, auranofin, reference compound]
- reversibility of TGR inhibition ([1]; 250 µM inhibitor, 100-fold jump dilution): irreversible
- % Activity (ID list), D0 [1]: 1.9% and -0.049%
- % Inhibition (ID list), D0 [1]: 98.1% and 100.0%
- % Activity (ID list), D60 [1]: 3.7% and -3.0% and -2.8%
- % Inhibition (ID list), D60 [1]: 96.3% and 103.0% and 102.8%
- % Activity, 0 min [1, 6]: 1.94% and 1.91% and -0.04934%
- % Activity, 60 min [1, 7]: 3.69% and -3.0493% and -2.833%
- Inhibitor (rate), -15 ([1]; raw rate): 0.001018 and 0.001002 and 0.001033
- % Activity, -15 [1]: 0.7444% and 0.7656% and 0.7594%
- % Activity (ID list) [1]: 0.744% and 0.8% and 0.759%
- % Inhibition (ID list) [1]: 100.0%
- % viability ([2]; 23 day S. mansoni worms, 48 HR, Conc. 0.5 µM): 50.0296%
- % viability ([2]; 23 day S. mansoni worms, 48 HR, Conc. 1 µM): 15.8933%
- % viability ([2]; 23 day S. mansoni worms, 48 HR, Conc. 2.5 µM): 5.6364%
- % viability ([2]; 23 day S. mansoni worms, 48 HR, Conc. 5 µM): 0.3335%
- LD50 ex vivo S. mansoni 21 days [2]: 0.62 ± 0.01 µM

SMILES: C#CCN(Cc1nc(-c2ccccc2)oc1C)[C@@H]1C[C@@H]2C[C@H]([C@H]1C)C2(C)C [Compound 6]
- % Activity (ID list), D0 [1]: 75.6% and 75.7% and 80.1%
- % Inhibition (ID list), D0 [1]: 24.4% and 24.3% and 19.9%
- % Activity (ID list), D60 [1]: 78.0% and 78.9% and 78.3%
- % Inhibition (ID list), D60 [1]: 22.0% and 21.1% and 21.7%
- Inhibitor (rate), 0 min ([1]; [0, D0]: 15 min preincubation inhibitor + TGR + NADPH, diluted 1:100, then activity determined immediately, raw rate): 0.03741 and 0.03869 and 0.04167
- % Activity, 0 min [1, 6]: 75.6216% and 75.6995% and 80.0576%
- Inhibitor (rate), 60 min ([1]; [60, D60]: 15 min preincubation inhibitor + TGR + NADPH, diluted 1:100, then activity determined after 60 min, raw rate): 0.03652 and 0.03852 and 0.03804
- % Activity, 60 min [1, 7]: 78.0175% and 78.8698% and 78.3361%
- Inhibitor (rate), -15 ([1]; raw rate): 0.0007205 and 0.001179 and -0.0005968
- % Activity, -15 [1]: 1.808% and 2.913% and -1.39%
- % Activity (ID list) [1]: 2.9% and -1.4%
- % Inhibition (ID list) [1]: 98.2% and 97.1% and 101.4%
- TGR activity relative to dmso, time 0 ([3]; time 0 (time unit not given)): 3.265 and 0.9012
- TGR activity relative to dmso, time 5 ([3]; time 5 (time unit not given)): 0.7526 and -0.07048 and -0.5247
- TGR activity relative to dmso, time 10 ([3]; time 10 (time unit not given)): 0.5708 and -0.4368 and -0.3757
- TGR activity relative to dmso, time 15 ([3]; time 15 (time unit not given)): 0.7215 and 0.1963 and -0.1983
- TGR activity relative to dmso, time 30 ([3]; time 30 (time unit not given)): 2.551 and 1.111 and 1.493
- viability at 5 µM ([2]; Schistosoma mansoni, 23 day S. mansoni worms, 48 HR, Conc. 5 µM): 73.2%
- viability at 15 µM ([2]; Schistosoma mansoni, 23 day S. mansoni worms, 48 HR, Conc. 15 µM): 60.7%
- viability at 30 µM ([2]; Schistosoma mansoni, 23 day S. mansoni worms, 48 HR, Conc. 30 µM): 56.8%
- LD50 ex vivo S. mansoni 21 days [2]: >30^a µM

SMILES: C[C@@H]1[C@H]2C[C@@H](C[C@H]1NCc1nc3ccccc3n1C)C2(C)C [Compound 12]
- increase in the Tm of TGR in the presence of NADPH [4]: no effect
- Avg. Tm [4]: 73.5
- Avg. Tm, + 500 µM NADPH [4]: 64
- Tm, replicate 1-3, + 500 µM NADPH ([4]; in °C (unit assumed)): 64
- Tm, replicate 1-3 ([4]; in °C (unit assumed)): 73.5
- effect on Tm of oxidized TGR [4]: no effect

SMILES: C[C@@H]1N=C(c2ccccc2Cl)c2cc([N+](=O)[O-])ccc2NC1=O [MZM, meclonazepam, reference compound]
- LD50 ex vivo S. mansoni 21 days [2]: >50^a µM

SMILES: C[C@@H]1[C@H]2C[C@@H](C[C@H]1NCc1cc(-c3ccccc3)[nH]n1)C2(C)C [Compound 11]
- increase in the Tm of TGR in the presence of NADPH [4]: no effect
- Avg. Tm [4]: 73.5
- Avg. Tm, + 500 µM NADPH [4]: 63.67
- Tm, replicate 1-3, + 500 µM NADPH [4]: 63.5 (2×) and 64
- Tm, replicate 1-3 ([4]; in °C (unit assumed)): 73.5
- effect on Tm of oxidized TGR [4]: no effect

SMILES: CC1C(NCc2cn(C3OCC(O)C(O)C3O)c3ccccc23)CC2CC1C2(C)C (centres unmarked) [Compound 9]
- IC50 [5]: 13.7 ± 1.03 µM
- inhibition at 10 µM ([5]; BmTrxR, 10 µM compound, mean of 3 replicates, read-out: % inhibition): 47.6%
- inhibition at 25 µM ([5]; BmTrxR, 25 µM compound, mean of 3 replicates, read-out: % inhibition): 70.1%
- inhibition at 50 µM ([5]; BmTrxR, 50 µM compound, mean of 3 replicates, read-out: % inhibition): 83.3%
- shift of Tm of reduced TGR ([4]; 400uM compound): 1.5 °C
- shift of Tm of reduced TGR ([4]; 1mM compound): 3 °C
- Avg. Tm [4]: 74.8
- Avg. Tm, + 500 µM NADPH [4]: 68
- Tm, replicate 1-3, + 500 µM NADPH ([4]; in °C (unit assumed)): 67.5 and 68 and 69
- Tm, replicate 1-3 [4]: 74.5 (2×) and 75
- effect on Tm of oxidized TGR [4]: doesn’t shift the Tm

SMILES: O=C(C1CCCCC1)N1CC(=O)N2CCc3ccccc3C2C1 (centres unmarked) [PZQ, praziquantel]
- LD50 ex vivo S. mansoni 21 days [2]: >50^a µM

Reference: article PMC10287695, “Non-covalent inhibitors of thioredoxin glutathione reductase with schistosomicidal activity in vivo” (Nature Communications, 2023)
